≈ marks a conversion by molar mass, not a printed value. Entries after “also recorded” stand apart in the source; their conditions may differ. Read-outs that look alike come from different tables or passages of the source.
How the values were obtained:
[1] = Erythrocyte hemolysis assay; assay type: cell-based, human; conditions: human, erythrocytes (5% suspension), 1 hour, 37°C;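 note: compounds tested at their MIC and at 4× MIC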
Description: (§1) Cytotoxicity of the antibacterial compounds on cultured Vero cell was measured by using the Cell Proliferation Kit I (MTT) (Roche, Indianapolis, USA) according to the manufacturer's protocol. Addition of DMSO (1%) in the medium produced a slight cytotoxicity on Vero cell, which could easily be corrected for. Each assay was performed in quadruplicate and repeated three times. The results were converted to percentage of the control (cells only treated with 1% DMSO) and CC50 (concentrations that produce a 50% cytotoxicity effect on Vero cell) was calculated by the Origin v7.0 software (OriginLab, Northampton, USA). Hemolytic activities of the compounds were determined by using healthy human erythrocytes. The erythrocytes were washed three times in sterile saline and resuspended to 5% prior to the assay. […] Cells without compound treatment and cells with 1% Triton-100 treatment were used as 0% and 100% hemolysis controls, respectively. The cell suspensions were incubated for 1 hour at 37°C and centrifuged at 1000×g for 10 min. Volumes of 100 μl supernatants were transferred to another sterile plate and hemoglobin release from the cells was determined at 570 nm. […] The hemolysis assays were repeated twice.

SrrB' = assay: Inhibition of SrrB' autophosphorylation (Kinase-Glo); assay type: biochemical, S. epidermidis; conditions: compound 50 μM, 4 μg protein, 3 μM ATP
S. mutans 128 = assay: MIC assay (broth dilution in tubes, CLSI); assay type: cell-based, Streptococcus mutans; conditions: for MIC: Streptococcus mutans, S. mutans 128, read-out: Minimal inhibitory concentration (MIC)
Source text: (§2) Staphylococcus epidermidis ATCC12228 and RP62A strains were purchased from the American Type Culture Collection (ATCC, Manassas, USA). Staphylococcus aureus ATCC29213, Escherichia coli ATCC25922 and Pseudomonas aeruginosa ATCC27853 were kindly provided by Dr. Bijie Hu at Zhongshan Hospital (Shanghai, China). S. epidermidis strains se527, se886, se847, seG203, Streptococcus pyogenes strain 144, and Streptococcus mutans strain 128 were all clinical isolates from Zhongshan Hospital and Huashan Hospital (Shanghai, China). If not stated otherwise, S. epidermidis and S. aureus strains were grown at 37°C in tryptic soy broth (TSB, Oxoid) containing 0.25% glucose, E. coli and P. aeruginosa strains were grown at 37°C in Luria-Bertani (LB, Oxoid).
(§3) MIC assays for the antibacterial activities of the compounds were performed according to the broth micro-dilution (in tubes) method of the Clinical and Laboratory Standards Institute (CLSI) of America. The Minimal Bactericidal Concentration (MBC) was obtained by subculturing 100 μl from each negative (no visible bacterial growth) tube from the MIC assay, onto substance-free Mueller-Hinton agar plates. The plates were incubated at 37°C for 24 hours, and the MBC was defined as the lowest concentration of substance which produced subcultures growing no more than five colonies on each plate.

S. pyogenes 144 = assay: MIC assay (broth dilution in tubes, CLSI); assay type: cell-based, Streptococcus pyogenes; conditions: for MIC: Streptococcus pyogenes, S. pyogenes 144, read-out: Minimal inhibitory concentration (MIC)
Source text: as §2, §3

S. epidermidis ATCC12228 [2] = assay: MIC assay (broth dilution in tubes, CLSI); assay type: cell-based, Staphylococcus epidermidis; conditions: Staphylococcus epidermidis
Source text: as §2, §3

S. aureus ATCC29213 = assay: MIC assay (broth dilution in tubes, CLSI); assay type: cell-based, Staphylococcus aureus; conditions: for MIC: Staphylococcus aureus, S. aureus ATCC29213, read-out: Minimal inhibitory concentration (MIC)
Source text: as §2, §3

S. epidermidis ATCC12228 [3] = assay: Minimal bactericidal concentration (MBC) assay; assay type: cell-based; conditions: Staphylococcus epidermidis
Description: as §3

S. epidermidis RP62A [4] = assay: Minimal bactericidal concentration (MBC) assay; assay type: cell-based; conditions: Staphylococcus epidermidis
Description: as §3

[5] = Cytotoxicity on Vero cell (MTT, Cell Proliferation Kit I); assay type: cell-based, African Green-monkey; conditions: African green monkey, Vero cells, highest concentration tested 200 μM
Description: as §1

S. epidermidis RP62A [6] = assay: MIC assay (broth dilution in tubes, CLSI); assay type: cell-based; conditions: Staphylococcus epidermidis
Source text: as §2, §3

YycG' protein = target: T1, YycG' protein (Staphylococcus epidermidis, UniProt Q8CU87); assay: Inhibition of YycG' ATPase activity / autophosphorylation (Kinase-Glo Luminescent Kinase Assay); assay type: biochemical; conditions: 3 μM ATP; for IC50: 4 μg YycG' protein, read-out: IC50 for YycG'; for inhibition at 50 µM: compound 50 μM, 4 μg protein, read-out: Inhibition of YycG' phosphorylation (decrease of ATPase activity)
T1 construct: of YycG (370aa to 610aa) was amplified by PCR; His-tag (pET28a) (N); made in house; host or cells: E. coli BL21 (pET28a, pETYycG')
Description: The inhibitory activities of the compounds for the ATPase activity of the YycG' protein was measured using the Kinase-Glo™ Luminescent Kinase Assay (Promega, Madison, USA). Briefly, 4 μg YycG' protein was pre-incubated with a series of dilution of compounds in the reaction buffer (40 mM Tris [pH 7.5], 20 mM MgCl2, and 0.1 mg/ml BSA), at 25°C for 30 min. Then 3 μM ATP was added for another incubation of 30 min at 25°C, and Kinase-Glo™ Reagent was added to detect the rest amount of ATP, as recorded from luminescence measurements (RLU). In parallel, theYycG' protein with no addition of compounds was used as the control. The rate of inhibiting protein phosphorylation (Rp) by the compounds was calculated from equation 1:
Rp=RLU(YycG^′+compound+ATP+Reagent)−RLU(YycG^′+ATP+Reagent)/RLU(ATP+Reagent)−RLU(YycG^′+ATP+Reagent)×100% (1) MathType@MTEF@5@5@+=feaafiart1ev1aaatCvAUfKttLearuWrP9MDH5MBPbIqV92AaeXatLxBI9gBaebbnrfifHhDYfgasaacH8akY=wiFfYdH8Gipec8Eeeu0xXdbba9frFj0=OqFfea0dXdd9vqai=hGuQ8kuc9pgc9s8qqaq=dirpe0xb9q8qiLsFr0=vr0=vr0dc8meaabaqaciaacaGaaeqabaqabeGadaaakeaacqqGsbGudaWgaaWcbaGaeeiCaahabeaakiabg2da9maalaaabaGaeeOuaiLaeeitaWKaeeyvauLaeiikaGIaeeywaKLaeeyEaKNaee4yamMafe4raCKbauaacqGHRaWkcqqGJbWycqqGVbWBcqqGTbqBcqqGWbaCcqqGVbWBcqqG1bqDcqqGUbGBcqqGKbazcqGHRaWkcqqGbbqqcqqGubavcqqGqbaucqGHRaWkcqqGsbGucqqGLbqzcqqGHbqycqqGNbWzcqqGLbqzcqqGUbGBcqqG0baDcqGGPaqkcqGHsislcqqGsbGucqqGmbatcqqGvbqvcqGGOaakcqqGzbqwcqqG5bqEcqqGJbWycuqGhbWrgaqbaiabgUcaRiabbgeabjabbsfaujabbcfaqjabgUcaRiabbkfasjabbwgaLjabbggaHjabbEgaNjabbwgaLjabb6gaUjabbsha0jabcMcaPaqaaiabbkfasjabbYeamjabbwfavjabcIcaOiabbgeabjabbsfaujabbcfaqjabgUcaRiabbkfasjabbwgaLjabbggaHjabbEgaNjabbwgaLjabb6gaUjabbsha0jabcMcaPiabgkHiTiabbkfasjabbYeamjabbwfavjabcIcaOiabbMfazjabbMha5jabbogaJjqbbEeahzaafaGaey4kaSIaeeyqaeKaeeivaqLaeeiuaaLaey4kaSIaeeOuaiLaeeyzauMaeeyyaeMaee4zaCMaeeyzauMaeeOBa4MaeeiDaqNaeiykaKcaaiabgEna0kabigdaXiabicdaWiabicdaWiabcwcaLiaaxMaacaWLjaWaaeWaaeaacqaIXaqmaiaawIcacaGLPaaaaaa@A46C@
IC50 (the concentration of inhibition of 50% YycG' protein autophosphorylation) was obtained by using the Origin v7.0 software (OriginLab, Northampton, USA).

[7] = tested on: S. epidermidis RP62A mature biofilm cells; assay: Killing biofilm cells of S. epidermidis (CFU count); assay type: cell-based, Staphylococcus epidermidis
Description: An overnight culture of S. epidermidis strain RP62A was diluted 1:100 in TSB containing 0.25% glucose, then 1 ml bacterial suspension was inoculated into the wells of sterile 12-well polystyrene microtiter plates (Falcon) incubated at 37°C for 24 h. The plates with mature biofilm were washed gently four times with sterile PBS before adding fresh TSB containing the various compounds at their MBC values, and incubated at 37°C for 24 h. The plates were washed again four times with sterile PBS, then the biofilm cells were scraped from the plate and resuspended in 1 ml PBS, and violently vortexed to disintegrate clumps of cells. Next, the suspension was diluted gradually with sterile PBS and subcultured onto substance-free Mueller-Hinton agar plates, incubated at 37°C for 24 h, and the colonies were counted. The fresh medium containing vancomycin at the MBC value and substance-free fresh medium served as the controls. The experiment was repeated three times.

[8] = at 4 × MIC (number in parenthesis)
[9] = at MIC for S. epidermidis ATCC12228
[10] = ATCC12228, Table 2, as tested on S. epidermidis ATCC 12228, read-out: MICs
[11] = S. epidermidis ATCC12228 (non-biofilm-forming strain), read-out: Minimal inhibitory concentration (MIC)
[12] = S. epidermidis RP62A, read-out: Minimal bactericidal concentration (MBC)
[13] = S. epidermidis RP62A (biofilm-forming strain), read-out: Minimal inhibitory concentration (MIC)

T1 sequence (Q8CU87 370-610): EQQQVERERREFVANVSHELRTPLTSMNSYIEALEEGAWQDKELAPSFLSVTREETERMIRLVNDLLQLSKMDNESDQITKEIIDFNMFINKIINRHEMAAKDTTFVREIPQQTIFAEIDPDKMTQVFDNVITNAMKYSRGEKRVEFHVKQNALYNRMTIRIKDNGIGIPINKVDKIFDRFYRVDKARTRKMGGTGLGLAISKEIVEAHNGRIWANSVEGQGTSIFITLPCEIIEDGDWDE

SMILES | hemolysis at 1 h [1, 8] [%] | hemolysis at 1 h [1, 9] [%] | Inhibition of SrrB' phosphorylation (SrrB') [%] | MIC (S. mutans 128) [µM] | Inhibitory effect against Streptococcus pyogenes (S. pyogenes 144) | MIC (S. pyogenes 144) [µM] | MIC (S. epidermidis ATCC12228 [2]; [10]) [µM] | MIC (S. epidermidis ATCC12228 [2]; [11]) [µM] | Inhibitory effect against S. aureus (S. aureus ATCC29213) | MIC (S. aureus ATCC29213) [µM] | MBC (S. epidermidis ATCC12228 [3]) [µM] | MBC (S. epidermidis RP62A [4]; [12]) [µM] | CC50 [5] [µM] | MIC (S. epidermidis RP62A [6]; [13]) [µM] | IC50 (YycG' protein) [µM] | inhibition at 50 µM (YycG' protein) [%] | further results
O=C(NNC(=O)c1c(Br)c(Br)c(Br)c(Br)c1C(O)O)c1cc(Cl)ccc1O [Compound 1] | < 0.1 | < 0.1 | 3 | > 200 | inhibited the growth | 200 (≈ 130 µg/mL) | 50 | 50 | inhibited the growth | 50 (≈ 32.6 µg/mL) | 200 (≈ 130 µg/mL) | 200 | > 200 | 50 | 48 | 52 | 
Cc1ccc(C(O)O)cc1-c1ccc(/C=N/NC(=O)c2cc3c(ccc4ccccc43)o2)o1 [Compound 4] | 0.4 | 0.1 | 3 | > 200 | only active against S. pyogenes | 50 (≈ 22 µg/mL) | 12.5 | 12.5 |  | > 200 | 50 (≈ 22 µg/mL) | 100 | > 200 | 12.5 | 13.5 | 76 | 
CCOC(=O)C1=C(c2ccccc2)N=c2s/c(=C/c3ccc(-c4cccc(C(O)O)c4)o3)c(=O)n2C1c1ccc2c(c1)OCO2 (stereo not shown) [Compound 5] | 0.3 | 0.1 |  | 6.25 (≈ 3.89 µg/mL) | effective | 1.56 (≈ 0.971 µg/mL) | 6.25 | 6.25 | effective | 6.25 (≈ 3.89 µg/mL) | 25 (≈ 15.6 µg/mL) | 25 | > 200 | 6.25 | 14 | 73 | Inhibitory effect against Streptococcus mutans (S. mutans 128): effective; Reduction of the CFU of the biofilm cells ([7]; 24-hour-old biofilm, at MBC value, relative to untreated control): more than 100 fold
CN(C)[C@@H]1C(O)=C(C(N)=O)C(=O)[C@@]2(O)C(O)=C3C(=O)c4c(O)cccc4[C@@](C)(O)[C@H]3C[C@@H]12 [Tet, tetracycline, reference compound] |  |  |  |  |  |  |  |  |  |  |  |  |  |  |  |  | MIC (S. epidermidis ATCC12228 [2]; ATCC12228, conventional antibiotics used in the hemolysis assay, strain not printed at the place, read-out: MIC): 0.25 µg/mL
CN[C@H](CC(C)C)C(=O)N[C@H]1C(=O)N[C@@H](CC(N)=O)C(=O)N[C@H]2C(=O)N[C@H]3C(=O)N[C@H](C(=O)N[C@H](C(=O)O)c4cc(O)cc(O)c4-c4cc3ccc4O)[C@H](O)c3ccc(c(Cl)c3)Oc3cc2cc(c3O[C@@H]2O[C@H](CO)[C@@H](O)[C@H](O)[C@H]2O[C@H]2C[C@](C)(N)[C@H](O)[C@H](C)O2)Oc2ccc(cc2Cl)[C@H]1O [Vancomycin, reference compound] |  |  |  |  |  |  |  |  |  |  |  |  |  |  |  |  | MBC (S. epidermidis RP62A [4]; RP62A): 4 µg/mL; MIC (S. epidermidis RP62A [6]; RP62A): 1 µg/mL; Killing of biofilm cells ([7]; concentration increased up to 128 μg/ml): no increased killing; also recorded: almost without effect
